Source: patent publication US20190316211A1, “ONCOGENIC ALTERNATIVE SPLICING SWITCH OF PACE4 IN CANCER” (SOCIETE DE COMMERCIALISATION DES PRODUITS DE LA RECHERCHE …, priority 2016, published 2019)

Tests used:
[1] = tested on: PACE4 secretion; assay: PACE4 secretion assay with post-translational modification inhibitors; format: cell-based; settings: 24 h secretion in presence of agent
Text: Immunoprecipitations on transiently transfected HEK293-FT cells were subjected to Sequential Window Acquisition of all Theoretical Mass Spectra (SWATH-MS)-based analysis (FIGS. 7F and G). Proteins identified in each pull-down were used to compare enrichment between the two different isoforms. Both isoforms pulled-down endoplasmic reticulum (ER) proteins with similar enrichment. The two isoforms had clearly different patterns when it came to endosomal compartments-associated proteins such as Arf6, Rab13 or Vps16 with PACE4-altCT pull-down displaying the higher enriched levels for these proteins. […] Considering the slight substitution caused by the splicing in the protein primary structure (FIG. 7A), PTM prediction tools were used to evaluate whether distinctive PTM motifs could be found in the alternative C-terminus compared to the FL one. The predicted PTM sites that scored the highest were S-palmitoylation, non-consensual S-farnesylation and S-geranylgeranylation on the Cys cluster added at the C-terminal extremity of the protein ([…]; see FIG. 8A).
For PACE4 secretion assays, cells were plated at equal densities in 6-well plates for 24 h in complete medium. 24 h later, the medium was replaced by the minimal volume required of fresh culture medium (600 μL without FBS) and the cells were either allowed to secrete for the indicated time (for secretion kinetics) or (for inhibitor treatments) allowed to secrete for an additional 24 h in the presence of the indicated concentrations of agents (heparin (Sandoz, Niirnberg, Germany), 2-bromopalmitate (Sigma Aldrich), FTI-277 (Sigma Aldrich), GGTI-2133 (Santa Cruz Biotechnology Inc., Santa Cruz, Calif., USA)

[2] = target: growth differentiation factor 15 (human) (UniProt Q99988); assay: cell-based or functional assay
[3] = tested on: IGF1R; assay: Western blot of PC substrate processing in inhibitor-treated DU145 and LNCaP lines; format: cell-based; settings: 50 μM, 48 h
Description: (§1) Western blotting were carried out of (i) cell lines silenced with shPACE4, shfurin and shPC7, (ii) cell lines stably expressing PACE4-FL and PACE4-altCT and (iii) cell lines treated with either the non-selective and irreversible PC inhibitor decanoyl-RVKR-chloromethylketone (CMK) or the PACE4 high affinity peptide inhibitor [dLeu]LLLRVK-amidinobenzylamide (Amba; dL-ML-Amba), herein after called C23 (Levesque et al., 2015, Oncotarget, 6: 3680-3693). In order to test the western blot arrays, known PC substrates were chosen, namely, the insulin-like growth factor 1 receptor (IGF1R) and integrin alpha-6 (ITGA6); two well-accepted furin substrates, were evaluated (FIGS. 10A and B) and E-cadherin. […] In contrast, the overexpression of PACE4-FL and PACE4-altCT did increase the processing of IGF1R and ITGA6 pro-forms, highlighting the cautionary interpretation that are needed in overexpression studies.
(§2) For substrates analysis, cell lysates were prepared by plating equal number of cells in p100 mm plates in complete medium. 24 h later, medium was replaced by 6 mL of serum-free fresh medium (with treatment if indicated; 50 μM of dL-ML-Amba or dec-RVKR-CMK (Bachem, Torrance, Calif.) and cells were further incubated 48 h. Medium was then collected and centrifuged at 1,000×g for 10 min at room temperature to remove any floating cells, aliquot of medium were then taken (800 μL), flash-frozen in liquid nitrogen, lyophilized overnight, restituted in 100 μL of Laemmli buffer: 8M urea (1:1) and boiled for 5 min until complete resuspension. 25 μL of concentrated medium were loaded on SDS-PAGE (equivalent of 200 μL of culture medium). Cells were carefully washed with PBS and lysed from cell pellet (resulting from 1,000×g centrifugation) using radio-immunoprecipitation assay buffer (RIPA) as described in (Couture et al., 2012). Samples were incubated 20 min on ice and further centrifuged 30 min at 13.000 rpm at 4° C. Protein concentration was determined by bicinchoninic acid assay (Pierce) to load 15 μg on polyacrylamide gels. […] was used as a loading control, for conditioned media, a Coomassie blue staining was routinely performed to control for protein loading.

[4] = tested on: ITGA6; assay: as above; format: cell-based; settings: 50 μM, 48 h
Description: as §1, §2

[5] = tested on: GDF-15 in LNCaP cells; assay: GDF-15 cleavage and secretion analysis (western blot, ELISA); format: cell-based; settings: treated LNCaP cells, western blot array and ELISA
Text: FIG. 10 illustrates the identification and validation of GDF-15 as a PACE4-specific substrate in prostate cancer cells, showing in (A) Western blots of candidate PC substrates across the knockdown, overexpressing and inhibitor-treated DU145 and LNCaP (B) lines; (C) expression of GDF-15 in DU145 and LNCaP cells showing that mature GDF-15 is secreted in the medium; (D) GDF-15 concentrations in DU145 and LNCaP conditioned medium determined by ELISA; (E) GDF-15 cleavage analysis in the LNCaP cells panel; (F) GDF-15 concentrations in the conditioned medium determined by ELISA; (G) GDF-15 cleavage analysis in LNCaP treated with either the ML-peptide or the cell impermeable analog (PEG8-ML); (H) GDF-15 spanning peptide cleavage by PACE4 and furin monitored by HPLC, cleavage site is underlined in the spanning peptide sequence, peptide identity was confirmed by MALDI-TOF upon collection of associated fractions; (I) Western blot analysis of paired adjacent non-cancerous tissues (ANCT) and prostate tissues (PCa); and (J) a blot showing various cancer grades is shown together with the densitometric analysis of 21 tissues pairs (n=6 (3+3), 7 (3+4), 6 (4+3), 2 (5+X) X being 3 and 4).
GDF-15 is known to supports both the proliferation and clonogenic potential of LNCaP cells, which is also in line with the observed phenotypes for both PACE4 knockdown and overexpressing cells. […]

[6] = target: Multi-Leucine (ML) peptide

growth differentiation factor 15 (human), sequence (Q99988 195-308): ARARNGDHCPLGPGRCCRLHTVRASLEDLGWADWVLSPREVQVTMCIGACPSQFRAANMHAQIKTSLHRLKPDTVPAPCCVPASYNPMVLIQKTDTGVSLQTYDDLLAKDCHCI

CCCCCCCCCCCCCCC(Br)C(=O)O (stereo not drawn) [2-BP, 2-bromopalmitate]
variation in secretion levels [1]: without any significant variation

COC(=O)[C@H](CCSC)NC(=O)c1ccc(NC[C@@H](N)CS)cc1-c1ccccc1 [FTI-277]
variation in secretion levels [1]: without any significant variation

CC(C)C[C@H](NC(=O)c1ccc(NCc2cnc[nH]2)cc1-c1cccc2ccccc12)C(=O)O [GGTI-2133]
variation in secretion levels [1]: without any significant variation

PACE4-FL (from UniProt P29122 150-969) (enzyme)
amount of secreted GDF-15 in conditioned medium (ELISA) (times higher than pLenti6 control cells) [2]: 5

[dLeu]LLLRVK-amidinobenzylamide [C23]
processing of IGF1R pro-form [3]: no effect | processing of ITGA6 pro-form [4]: no effect | GDF-15 observed in the medium [5]: virtually no pro-GDF-15 could be observed

decanoyl-RVKR-chloromethylketone [CMK]
processing of IGF1R pro-form [3]: prevented the processing | processing of ITGA6 pro-form [4]: prevented the processing | GDF-15 observed in the medium [5]: virtually no pro-GDF-15 could be observed

B1: V5-tagged PACE4-FL (protein)
chain: QVRSDPQALYFNDPIWSNMWYLHCGDKNSRCRSEMNVQAAWKRGYTGKNVVVTILDDGIERNHPDLAPNYDSYASYDVNGNDYDPSPRYDASNENKHGTRCAGEVAASANNSYCIVGIAYNAKIGGIRMLDGDVTDVVEAKSLGIRPNYIDIYSASWGPDDDGKTVDGPGRLAKQAFEYGIKKGRQGLGSIFVWASGNGGREGDYCSCDGYTNSIYTISVSSATENGYKPWYLEECASTLATTYSSGAFYERKIVTTDLRQRCTDGHTGTSVSAPMVAGIIALALEANSQLTWRDVQHLLVKTSRPAHLKASDWKVNGAGHKVSHFYGFGLVDAEALVVEAKKWTAVPSQHMCVAASDKRPRSIPLVQVLRTTALTSACAEHSDQRVVYLEHVVVRTSISHPRRGDLQIYLVSPSGTKSQLLAKRLLDLSNEGFTNWEFMTVHCWGEKAEGQWTLEIQDLPSQVRNPEKQGKLKEWSLILYGTAEHPYHTFSAHQSRSRMLELSAPELEPPKAALSPSQVEVPEDEEDYTAQSTPGSANILQTSVCHPECGDKGCDGPNADQCLNCVHFSLGSVKTSRKCVSVCPLGYFGDTAARRCRRCHKGCETCSSRAATQCLSCRRGFYHHQEMNTCVTLCPAGFYADESQKNCLKCHPSCKKCVDEPEKCTVCKEGFSLARGSCIPDCEPGTYFDSELIRCGECHHTCGTCVGPGREECIHCAKNFHFHDWKCVPACGEGFYPEEMPGLPHKVCRRCDENCLSCAGSSRNCSRCKTGFTQLGTSCITNHTCSNADETFCEMVKSNRLCERKLFIQFCCRTCLLAG
enzymatic activity (cleavage of the fluorogenic substrate Pyr-Arg-Thr-Lys-Arg-methylcoumaryl-7-amide) [6]: both isoforms were still equally inhibited by the Multi-Leucine (ML) peptide

B2: V5-tagged PACE4-altCT (protein)
chain: QVRSDPQALYFNDPIWSNMWYLHCGDKNSRCRSEMNVQAAWKRGYTGKNVVVTILDDGIERNHPDLAPNYDSYASYDVNGNDYDPSPRYDASNENKHGTRCAGEVAASANNSYCIVGIAYNAKIGGIRMLDGDVTDVVEAKSLGIRPNYIDIYSASWGPDDDGKTVDGPGRLAKQAFEYGIKKGRQGLGSIFVWASGNGGREGDYCSCDGYTNSIYTISVSSATENGYKPWYLEECASTLATTYSSGAFYERKIVTTDLRQRCTDGHTGTSVSAPMVAGIIALALEANSQLTWRDVQHLLVKTSRPAHLKASDWKVNGAGHKVSHFYGFGLVDAEALVVEAKKWTAVPSQHMCVAASDKRPRSIPLVQVLRTTALTSACAEHSDQRVVYLEHVVVRTSISHPRRGDLQIYLVSPSGTKSQLLAKRLLDLSNEGFTNWEFMTVHCWGEKAEGQWTLEIQDLPSQVRNPEKQGKLKEWSLILYGTAEHPYHTFSAHQSRSRMLELSAPELEPPKAALSPSQVEVPEDEEDYTAQSTPGSANILQTSVCHPECGDKGCDGPNADQCLNCVHFSLGSVKTSRKCVSVCPLGYFGDTAARRCRRCHKGCETCSSRAATQCLSCRRGFYHHQEMNTCVTLCPAGFYADESQKNCLKCHPSCKKCVDEPEKCTVCKEGFSLARGSCIPDCEPGTYFDSELIRCGECHHTCGTCVGPGREECIHCAKNFHFHDWKCVPACGEGFYPEEMPGLPHKVCRRCDENCLSCAGSSRNCSRCKTGFTQLGTSCITNHTCSNGDIWQRLETFWVVTTGRMYSHPVGGGQECC
enzymatic activity (cleavage of the fluorogenic substrate Pyr-Arg-Thr-Lys-Arg-methylcoumaryl-7-amide) [6]: both isoforms were still equally inhibited by the Multi-Leucine (ML) peptide
